# Key:
# [1] = system: Liver Injuries caused by Carbon Tetrachloride in Mice; test: Inhibitory effect against liver injuries caused by carbon tetrachloride in mice; type: in vivo, mice (ICR, male); details: CCl4 i.p., serum 24 h
# Description: (§1) The carbon tetrachloride model(see, Philippe letteron et al., Biochemical Pharmacology, 39, 12, 2027-2034, 1990; Tips, 10, 1989; Kyoichi Kagawa et al., Japan J. Pharmacol., 42, 19-26, 1986; K. T. Liu and P. Lesca, Chem. Biol. Interactions, 41, 39-47, 1982; Richard O. et al., J. Biological Chemistry, 236, 2, 1961) is used most generally. This model has been established based on the internal phenomena that carbon tetrachloride is converted by cytochrome P-450 to a toxic free radical trichloromethyl(CCl3.), this radical is strongly bound to a thiol group of membrane protein on microsome of liver to form a lipid radical, which is then converted to a peroxy radical in the presence of oxygen to facilitate the peroxidation reaction of membrane lipid. That is, carbon tetrachloride suppresses protein biosynthesis in the liver, induces the increase of ALT and AST values in blood, and further causes histologically the centrilobular necrosis of the liver.
# (§2) The degree of liver damage in the experimental animals was determined by measuring ALT and AST values in blood(see, Biol. Pharm. Bull., 20, 4, 381-385, 1997; Toxicology and Applied Pharmacology, 95, 1-11, 1988), and the hepatoprotective activity was calculated based on the following formula(see, Planta Medica, 55, 127-132, 1989). At this time, the hepatoprotective activity can also be calculated based on the same formula by replacing ALT value with AST value. [formula]
# (§3) The hepatoprotective effect of the compound of the present invention was identified according to a known procedure(see, Philippe letteron et al., Biochemical Pharmacology, 39, 12, 2027-2034, 1990), and the protocol may be described in brief as follows.
# (§4) Rats(SD, male, 180˜200 g) and mice(ICR, male, 27-35 g) used in the test were allowed in a condition of temperature 22±1° C. and relative humidity 60±5%. Feed and water were provided with no restriction while light and darkness were changed at an interval of 12 hours.
# (§5) […] […] Each group included 8 test animals, and the test compound was orally administered once per animal. After 30 minutes(rat) or 1 hour(mouse) from the administration of the test compound, 10% carbon tetrachloride in corn oil solution was intraperitoneally injected in doses of 2 ml/kg in rats and 0.15 ml/kg in mice. As the control compounds, silymarin and DDB were selected.
# (§6) The test animals were provided with no feed and sufficient water for 24 hours from the administration of carbon tetrachloride. […] This blood was centrifuged to obtain sera. ALT and AST values in the sera were measured using blood chemistry analyzer(Vitalab, Selectra II, Merck). The statistical significance for the test result of each group was examined based on Student's t-test, and the result was recognized as having a statistical significance when its P value is less than 5%.
# [2] = system: Liver Injuries caused by Carbon Tetrachloride in Rats; test: Inhibitory effect against liver injuries caused by carbon tetrachloride in rats; type: in vivo, Rats (SD, male); details: CCl4 i.p., serum 24 h
# Description: as §1, §2, §3, §4, §5, §6
# [3] = system: Fulminant Liver Injuries caused by D-galactosamine/lipopolysaccharide in Mice; test: Inhibitory effect against fulminant liver injuries caused by D-galactosamine/lipopolysaccharide in mice (survival); type: in vivo, Mice (ICR, male); details: D-galactosamine 800 mg/kg + lipopolysaccharide 10 μg/kg i.p., observed 24 hours
# Description: Further, the D-galactosamine/lipopolysaccharide model(see, Chris Galanos et al., Proc. Natl. Acad. Sci. USA, 76, 11, 5939-5943, 1979; Koji Hase et al., Biol. Pharm. Bull., 20, 4, 381-385, 1997; Junichi Nagakawa et al., The Journal of Pharmacology and Experimental Therapeutics, 264, 1, 1992; Nolan J. D., Hepatology, 1, 458-465, 1981; Wendel A., Methods Enzymol., 186, 675-680, 1990) which is also used in the present invention for the identification of hepatoprotective effect is based on the phenomena that liver injuries are caused by immune responses in mouse. It has been reported that such kind of liver injuries are caused not by direct tissue lesions due to the chemicals but by secretion of tumor necrosis factor(TNF)-α, reactive oxygen, etc.(see, Hishinuma I. et al., Hepatology, 12, 1187-1191, 1990, Hase K. et al., Phytother. Res., 10, 387-392, 1996). Here, D-galactosamine supresses protein biosynthesis and as well highly increases the sensitivity of the liver cells for lipopolysaccharide by reducing uridine nucleotide.
# The hepatoprotective effect of the compound of the present invention was identified according to a known procedure(see, Koji Hase et al., Biol. Pharm. Bull., 20, 4, 381-385, 1997), and the protocol may be described in brief as follows.
# Mice(ICR, male, 27˜35 g) as the test animal were allowed in a condition of temperature 22±1° C. and relative humidity 60±5%. Feed and water were provided with no restriction while light and darkness were changed at an interval of 12 hours.
# The compound of the present invention was suspended in a solvent corn oil, and this suspension was administered in a dose of 10 ml/kg. Each group included 10 test animals, and the test compound was orally administered once per animal. After 1 hour from the administration of the test compound, D-galactosamine and lipopolysaccharide each of which dissolved in physiological saline were intraperitoneally injected at the same time in doses of 800 mg/kg and 10 μg/kg, respectively. As the control compounds, SY-640[N-methyl-N-(3,4-methylenedioxyphenacyl)acetamide; EP0350251], silymarin and DDB were selected.
# The statistical significance for the test result of each group was examined based on Student's t-test, and the result was recognized as having a statistical significance when its P value is less than 5%.
Structure (SMILES),Inhibitory Effect against Liver Injuries (%) ALT ([1]; dose 16.7 mg/kg p.o. once),Inhibitory Effect against Liver Injuries(%) AST ([1]; dose 16.7 mg/kg p.o. once),Inhibitory Effect against Liver Injuries (%) ALT ([1]; dose 50 mg/kg p.o. once),Inhibitory Effect against Liver Injuries(%) AST ([1]; dose 50 mg/kg p.o. once),Inhibitory Effect against Liver Injuries (%) ALT ([2]; dose 16.7 mg/kg p.o. once),Inhibitory Effect against Liver Injuries (%) ALT ([2]; dose 50 mg/kg p.o. once),Survival Rate (%) ([3]; dose 5.6 mg/kg oral once),Survival Rate (%) ([3]; dose 50 mg/kg oral once),Inhibitory Effect against Liver Injuries (%) ALT ([1]; dose 1.9 mg/kg p.o. once),Inhibitory Effect against Liver Injuries (%) ALT ([1]; dose 5.6 mg/kg p.o. once),Inhibitory Effect against Liver Injuries (%) ALT ([2]; dose 1.9 mg/kg p.o. once),Inhibitory Effect against Liver Injuries (%) ALT ([2]; dose 5.6 mg/kg p.o. once)
"CC(=O)SCC(=O)c1ccc2c(c1)OCO2 [Compound 28, 1-(benzo[3,4-d]1,3-dioxolan-5-yl)-2-acetylthioethan-1-one]",93%,94%,100%,100%,14%,41%,100%,–,–,–,–,–
"COC(=O)c1cc(OC)c2c(c1-c1c(C(=O)OC)cc(OC)c3c1OCO3)OCO2 [DDB, reference compound]",–,–,22%,6%,–,21%,–,80%,–,–,–,–
"COc1cc(/C=N/OCc2ccccn2)cc2c1OCO2 [Compound 13, 6-(2-((2-pyridyl)methoxy)-2-azavinyl)-4-methoxybenzo [d]1,3-dioxolane]",69%,–,100%,–,59%,67%,–,90%,35%,43%,53%,49%
"c1csc(-c2ccc3c(c2)OCO3)n1 [Compound 21, 2-(benzo[3,4-d]1,3-dioxolan-5-yl)-1,3-thiazole]",99%,97%,100%,100%,63%,67%,100%,–,–,–,–,–
O/N=C/c1ccc2c(c1)OCO2 [Compound 1],100%,–,100%,–,68%,84%,–,90%,50%,79%,44%,43%

# From patent publication US6693126B2, “Dihydroxyphenyl derivatives for hepatoprotection and treatment of liver diseases” (Choongwae Pharm. Co., Ltd., priority 2000, dated 2004)
